From PubChem BioAssay AID248 (DTP/NCI, 2004)
Several values for one entry are separate records, joined by “and”; a condition that tells them apart may be missing. Identical values can stand only once. Toxic doses and inconclusive results are not listed. Cut-off read from the data, not from the text of the source: active = T/C of 150% or more; inactive = T/C below 125%.

Test system: L1210 leukemia ip in BDF1 mice, survival T/C
Experiment: NCI In Vivo Anticancer Drug Screen. Data for tumor model L1210 Leukemia (intraperitoneal) in B6D2F1 (BDF1) mice
Conditions: endpoint: mean survival time, higher = longer survival
In short: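 Each compound was tested against a transplantable tumor grown in mice. The endpoint was survival, with treated animals benchmarked against vehicle controls as a simple ratio.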

[1] = dose: 50.0 mg/kg/injection, schedule: Q04DX002 (ip), vehicle: Klucel (hydroxypropylcellulose) (HPC)
[2] = dose: 100.0 mg/kg/injection, schedule: Q04DX002 (ip), vehicle: Klucel (hydroxypropylcellulose) (HPC)
[3] = dose: 200.0 mg/kg/injection, schedule: Q04DX002 (ip), vehicle: Klucel (hydroxypropylcellulose) (HPC)
[4] = dose: 400.0 mg/kg/injection, schedule: Q04DX002 (ip), vehicle: Klucel (hydroxypropylcellulose) (HPC)
[5] = dose: 100.0 mg/kg/injection, schedule: Q01DX009 (ip), vehicle: saline
[6] = dose: 200.0 mg/kg/injection, schedule: Q01DX009 (ip), vehicle: saline
[7] = dose: 100.0 mg/kg/injection, schedule: Q01DX001 (ip), vehicle: saline
[8] = dose: 200.0 mg/kg/injection, schedule: Q01DX001 (ip), vehicle: saline
[9] = dose: 400.0 mg/kg/injection, schedule: Q01DX001 (ip), vehicle: saline
[10] = dose: 100.0 mg/kg/injection, schedule: Q04DX003 (ip), vehicle: Klucel (hydroxypropylcellulose) (HPC)
[11] = dose: 200.0 mg/kg/injection, schedule: Q04DX003 (ip), vehicle: Klucel (hydroxypropylcellulose) (HPC)
[12] = dose: 400.0 mg/kg/injection, schedule: Q04DX003 (ip), vehicle: Klucel (hydroxypropylcellulose) (HPC)
[13] = dose: 100.0 mg/kg/injection, schedule: Q04DX002 (ip), vehicle: saline
[14] = dose: 200.0 mg/kg/injection, schedule: Q04DX002 (ip), vehicle: saline
[15] = dose: 400.0 mg/kg/injection, schedule: Q04DX002 (ip), vehicle: saline
[16] = dose: 100.0 mg/kg/injection, schedule: Q01DX001 (ip), vehicle: carboxymethylcellulose (CMC)
[17] = dose: 200.0 mg/kg/injection, schedule: Q01DX001 (ip), vehicle: carboxymethylcellulose (CMC)
[18] = dose: 400.0 mg/kg/injection, schedule: Q01DX001 (ip), vehicle: carboxymethylcellulose (CMC)
[19] = dose: 100.0 mg/kg/injection, schedule: Q04DX003 (ip), vehicle: saline
[20] = dose: 200.0 mg/kg/injection, schedule: Q04DX003 (ip), vehicle: saline
[21] = dose: 400.0 mg/kg/injection, schedule: Q04DX003 (ip), vehicle: saline

Measured: T/C

O=C1C=C(c2ccccc2)C(c2ccccc2)C1=O (configuration not stated)
inactive: [1] 106 % of control | [2] 98 % of control | [3] 95 % of control and 111 % of control | [4] 93 % of control

Cc1cccc(N=Cc2ccc3c(c2)OCO3)c1
inactive: dose: 50.0 mg/kg/injection, schedule: Q01DX009 (ip), vehicle: saline 94 % of control | [5] 94 % of control | [6] 94 % of control

NNC(=O)C1C2C=CC(C2)C1C(=O)NN (configuration not stated)
inactive: dose: 100.0 mg/kg/injection, schedule: Q04DX003 (ip), vehicle: saline with Tween-80 103 % of control | dose: 200.0 mg/kg/injection, schedule: Q04DX003 (ip), vehicle: saline with Tween-80 91 % of control | dose: 400.0 mg/kg/injection, schedule: Q04DX003 (ip), vehicle: saline with Tween-80 100 % of control

C=C1C(=O)OC2C1C(O)C(OC(=O)/C(C)=C\C)C(C)=C1CC3OC3(C)C12 (configuration not stated)
inactive: dose: 25.0 mg/kg/injection, schedule: Q01DX001 (ip), vehicle: saline with Tween-80 94 % of control | dose: 50.0 mg/kg/injection, schedule: Q01DX001 (ip), vehicle: saline with Tween-80 105 % of control

c1ccc(NC2CCCCC2)cc1
inactive: dose: 50.0 mg/kg/injection, schedule: Q01DX003 (ip), vehicle: Klucel (hydroxypropylcellulose) (HPC) 103 % of control | dose: 100.0 mg/kg/injection, schedule: Q01DX003 (ip), vehicle: Klucel (hydroxypropylcellulose) (HPC) 101 % of control | dose: 200.0 mg/kg/injection, schedule: Q01DX003 (ip), vehicle: Klucel (hydroxypropylcellulose) (HPC) 101 % of control

O=C(OCC1OCOC1C1OCOC1COC(=O)c1ccccc1)c1ccccc1 (configuration not stated)
inactive: [7] 96 % of control | [8] 94 % of control | [9] 88 % of control

CSc1nnn(C(C)(C)C)n1
inactive: dose: 100.0 mg/kg/injection, schedule: Q01DX001 (ip), vehicle: acetone 100 % of control | dose: 200.0 mg/kg/injection, schedule: Q01DX001 (ip), vehicle: acetone 91 % of control

CC(=O)Nc1ccc2c(ccc3ccc4ccccc4c32)c1
inactive: [2] 102 % of control | [3] 105 % of control | [4] 105 % of control

COc1ccc(NC(=O)Nc2ccccc2C(N)=O)cc1
inactive: dose: 50.0 mg/kg/injection, schedule: Q01DX009 (ip), vehicle: Klucel (hydroxypropylcellulose) (HPC) 93 % of control | dose: 100.0 mg/kg/injection, schedule: Q01DX009 (ip), vehicle: Klucel (hydroxypropylcellulose) (HPC) 93 % of control | dose: 200.0 mg/kg/injection, schedule: Q01DX009 (ip), vehicle: Klucel (hydroxypropylcellulose) (HPC) 96 % of control

c1ccc(-c2nc3ccccc3s2)nc1
inactive: [10] 109 % of control | [11] 98 % of control | [12] 88 % of control

O=[N+]([O-])c1cc(C=Nc2ccccc2)ccc1Cl
inactive: [5] 97 % of control | [10] 94 % of control | [6] 108 % of control | [11] 100 % of control | dose: 400.0 mg/kg/injection, schedule: Q01DX009 (ip), vehicle: saline 103 % of control | [12] 97 % of control

CCOc1ccc(NC(N)=O)cc1
inactive: dose: 100.0 mg/kg/injection, schedule: Q04DX002 (ip), vehicle: gum acacia 107 % of control | dose: 200.0 mg/kg/injection, schedule: Q04DX002 (ip), vehicle: gum acacia 95 % of control | dose: 400.0 mg/kg/injection, schedule: Q04DX002 (ip), vehicle: gum acacia 100 % of control

CCO/C=N/N(C)c1n[n+]([O-])ccc1C
inactive: [13] 110 % of control | [14] 104 % of control | [15] 101 % of control

NC(=O)Nc1ccc2c(c1)Cc1cc([N+](=O)[O-])ccc1-2
inactive: [16] 100 % of control | [17] 105 % of control | [18] 91 % of control

S=C([S-])N1CCN(c2ccccc2)CC1.S=C([S-])N1CCN(c2ccccc2)CC1.[Zn]
inactive: [19] 89 % of control | [20] 95 % of control and 88 % of control | [21] 90 % of control

NC(=O)c1ccc[n+](CCc2c[nH]c3ccccc23)c1
inactive: dose: 75.0 mg/kg/injection, schedule: Q01DX001 (ip), vehicle: saline with Tween-80 94 % of control | dose: 150.0 mg/kg/injection, schedule: Q01DX001 (ip), vehicle: saline with Tween-80 101 % of control | dose: 300.0 mg/kg/injection, schedule: Q01DX001 (ip), vehicle: saline with Tween-80 98 % of control

CCCCCCCCCCCC(=O)NC(=S)Nc1ccc(N(C)C)cc1
inactive: [2] 93 % of control | [3] 108 % of control | [4] 90 % of control

O=C1c2ccccc2CCCC1Br (configuration not stated)
inactive: [16] 95 % of control | [17] 87 % of control | [18] 92 % of control

O=C(CCCN1CCC2(CC1)C(=O)NCN2c1ccccc1)c1cccs1
inactive: dose: 3.13 mg/kg/injection, schedule: Q01DX009 (ip), vehicle: saline with Tween-80 95 % of control | dose: 6.25 mg/kg/injection, schedule: Q01DX009 (ip), vehicle: saline with Tween-80 94 % of control | dose: 6.25 mg/kg/injection, schedule: Q04DX003 (ip), vehicle: saline with Tween-80 102 % of control | dose: 12.5 mg/kg/injection, schedule: Q01DX009 (ip), vehicle: saline with Tween-80 89 % of control | dose: 12.5 mg/kg/injection, schedule: Q04DX003 (ip), vehicle: saline with Tween-80 95 % of control

C=CCC1(Cc2ccsc2)C(=O)NC(=O)NC1=O
inactive: [16] 90 % of control | [17] 92 % of control | [18] 100 % of control

C#CCCCCC#CCCCCNC(=O)NCCCCC#CCCCCC#C
inactive: [19] 93 % of control | [20] 90 % of control | [21] 87 % of control

OCC1OC(n2c(N3CCOCC3)nc3ccccc32)C(O)C1O (configuration not stated)
inactive: [7] 115 % of control | [8] 97 % of control | [9] 96 % of control

CCCCCC(/C=N/NC(=O)c1cccc2ccccc12)=C\c1ccccc1
inactive: [7] 94 % of control | [9] 97 % of control

CCN(CC)C(=S)[S][Sb]([S]C(=S)N(CC)CC)[c]1ccccc1
inactive: dose: 100.0 mg/kg/injection, schedule: Q01DX001 (ip), vehicle: other 112 % of control | dose: 200.0 mg/kg/injection, schedule: Q01DX001 (ip), vehicle: other 89 % of control

Cc1ccc(S)c(C)c1
inactive: [10] 93 % of control | [11] 95 % of control

O=S(=O)(F)c1ccccc1C[P+](c1ccccc1)(c1ccccc1)c1ccccc1
inactive: dose: 1.56 mg/kg/injection, schedule: Q01DX009 (ip), vehicle: Klucel (hydroxypropylcellulose) (HPC) 110 % of control | dose: 3.12 mg/kg/injection, schedule: Q01DX009 (ip), vehicle: Klucel (hydroxypropylcellulose) (HPC) 118 % of control | dose: 6.25 mg/kg/injection, schedule: Q01DX009 (ip), vehicle: Klucel (hydroxypropylcellulose) (HPC) 117 % of control

CC(=O)OCC/[N+]([O-])=C\c1ncc([N+](=O)[O-])n1C
inactive: [13] 100 % of control | [14] 114 % of control | [15] 100 % of control

O=[N+]([O-])c1ccn(O)c(=NC2CCCCC2)c1
inactive: [7] 98 % of control | [8] 93 % of control | [9] 100 % of control

CC(C)(C)C(=O)C(Br)Br
inactive: dose: 25.0 mg/kg/injection, schedule: Q04DX002 (ip), vehicle: Klucel (hydroxypropylcellulose) (HPC) 101 % of control | [1] 96 % of control | [2] 97 % of control and 101 % of control

S=c1nc[nH]c2c1N=CNN2
inactive: dose: 5.0 mg/kg/injection, schedule: Q01DX001 (ip), vehicle: carboxymethylcellulose (CMC) 115 % of control | dose: 10.0 mg/kg/injection, schedule: Q01DX001 (ip), vehicle: carboxymethylcellulose (CMC) 90 % of control | dose: 20.0 mg/kg/injection, schedule: Q01DX001 (ip), vehicle: carboxymethylcellulose (CMC) 101 % of control | dose: 40.0 mg/kg/injection, schedule: Q01DX001 (ip), vehicle: carboxymethylcellulose (CMC) 96 % of control
